The results in this text go back to PMC4775864 (Theranostics, 2016).

The target of this assay is T1, endogenous EMMPRIN (Mus musculus, UniProt P18572).
T1 sequence (P18572 22-273 isoform P18572-2 limits assumed): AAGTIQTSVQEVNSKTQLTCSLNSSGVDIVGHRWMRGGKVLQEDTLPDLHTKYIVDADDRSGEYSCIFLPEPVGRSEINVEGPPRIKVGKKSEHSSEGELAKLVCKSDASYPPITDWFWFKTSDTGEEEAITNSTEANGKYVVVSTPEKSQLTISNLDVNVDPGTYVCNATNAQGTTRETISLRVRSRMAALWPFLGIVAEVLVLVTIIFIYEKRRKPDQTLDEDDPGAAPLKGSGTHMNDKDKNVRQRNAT
In words: Affinity measurements: fluorescence binding to adherent HL1 cells.

No end group written: not given here.

In the case of YKLPGHHHHYRP [AP-9], the Kd worked out at 8 ± 0.6 nM.

One may read the Kd as a measure of binding affinity in units of concentration.
